In brackets after ≈: the same amount, converted by molar mass. Like-named read-outs stand apart in the source and are kept apart here.
Tested on: platelet aggregation (rabbit platelets, ADP-induced)
Assay: ADP-induced platelet aggregation in vitro (turbidimetric method, rabbit platelet-rich plasma)
Format: cell-based
Details: for Percent inhibition of platelets aggregation / inhibition at 25 µg/mL / inhibition at 50 µg/mL / inhibition at 100 µg/mL / inhibition at 200 µg/mL: tartrate salt; for inhibition at 25 µg/mL / inhibition at 50 µg/mL / inhibition at 100 µg/mL / inhibition at 200 µg/mL: Platelet, read-out: Percent inhibition of platelets aggregation
Procedure: In the biological tests hereafter described, the products were assayed as the tartrate salts.
Male rabbits weighing 2.5-3.5 Kg were used. Fifty four ml of blood were withdrawn from the carotid artery of rabbits anaesthetized with ether.
The PRP was obtained by centrifugation at 400 g for 10 minutes. The concentration of the platelets was adjusted to 250,000/mm^3 by diluting the PRP with PPP prepared by a second centrifugation of the blood samples for about 10 minutes at 2000 g.
The aggregation experiments were generally performed within 1-2 h from the time of blood collection.
In the cuvette of the aggregometer, reagents were added as follows: 0.8 ml drug solution or saline, and 0.2 ml ADP, at the molar concentration of 2.2 × 10^-4. The turbidimetry was checked after 11/2, 3 and 6 minutes. The inhibition of the aggregation is given in the table below as percent of ADP controls at the three times.

[1] = 50 γ/ml, 360 seconds after ADP (2.2 × 10^-4)
[2] = 100 γ/ml, 90 seconds after ADP (2.2 × 10^-4)
[3] = 100 γ/ml, 180 seconds after ADP (2.2 × 10^-4)
[4] = 100 γ/ml, 360 seconds after ADP (2.2 × 10^-4)
[5] = 200 γ/ml, 90 seconds after ADP (2.2 × 10^-4)
[6] = 200 γ/ml, 180 seconds after ADP (2.2 × 10^-4)
[7] = 200 γ/ml, 360 seconds after ADP (2.2 × 10^-4)
[8] = 25 γ/ml, 90 seconds after ADP (2.2 × 10^-4)
[9] = 25 γ/ml, 180 seconds after ADP (2.2 × 10^-4)
[10] = 25 γ/ml, 360 seconds after ADP (2.2 × 10^-4)
[11] = 50 γ/ml, 90 seconds after ADP (2.2 × 10^-4)
[12] = 50 γ/ml, 180 seconds after ADP (2.2 × 10^-4)
[13] = inhibition of platelet aggregation, at all three times

Compound	Percent inhibition of platelets aggregation [1] [%]	Percent inhibition of platelets aggregation [2] [%]	Percent inhibition of platelets aggregation [3] [%]	Percent inhibition of platelets aggregation [4] [%]	Percent inhibition of platelets aggregation [5] [%]	Percent inhibition of platelets aggregation [6] [%]	Percent inhibition of platelets aggregation [7] [%]	activity (inhibition of platelet aggregation, in words) (at all three times)	Percent inhibition of platelets aggregation [8] [%]	Percent inhibition of platelets aggregation [9] [%]	Percent inhibition of platelets aggregation [10] [%]	Percent inhibition of platelets aggregation [11] [%]	Percent inhibition of platelets aggregation [12] [%]	further results
CO[C@]12C[C@@H](CNc3cnccn3)CN(C)[C@@H]1Cc1cn(C)c3cccc2c13 [355/895, 2-(10'-methoxy-1',6'-dimethylergoline-8'β-methyl)aminopyrazine]	5	10	12	20	50	55	62	very low activity	–	–	–	–	–	–
CO[C@]12C[C@@H](CNc3nccnc3Cl)CN(C)[C@@H]1Cc1cn(C)c3cccc2c13 [355/898, 2-(10'methoxy-1',6'-dimethylergoline-8'β-methyl)amino-3-chloropyrazine]	45	67	71	76	77	82	83	–	17	20	30	35	31	–
COc1nccnc1NC[C@H]1CN(C)[C@@H]2Cc3cn(C)c4cccc(c34)[C@@]2(OC)C1 [355/899, 2-(10'-methoxy-1',6'-dimethylergoline-8'β-methyl)amino-3-methoxypyrazine]	10	30	30	30	60	61	61	–	–	–	–	10	9	–
CO[C@]12C[C@@H](CNc3cncc(Cl)n3)CN(C)[C@@H]1Cc1cn(C)c3cccc2c13 [355/900, 2-(10'-methoxy-1',6'-dimethylergoline-8'β-methyl)amino-6-chloropyrazine]	30	80	70	80	100	100	100	very strong activity	10	10	10	40	25	ED50 [13]: 55 to 70 µg/mL
CO[C@]12C[C@@H](CSc3nccnc3Cl)CN(C)[C@@H]1Cc1cn(C)c3cccc2c13 [355/915, 2-(10'-methoxy-1',6'-dimethylergoline-8'β-methyl)thio-3-chloropyrazine]	25	75	75	80	100	100	100	very strong activity	10	10	10	20	15	ED50 [13]: 55 to 70 µg/mL
CO[C@]12C[C@@H](CSc3cnccn3)CN(C)[C@@H]1Cc1cn(C)c3cccc2c13 [355/917, 2-(10'-methoxy-1',6'-dimethylergoline-8'β-methyl)thiopyrazine]	–	–	–	10	15	12	35	very low activity	–	–	–	–	–	–
COc1nccnc1SCC1CN(C)C2Cc3cn(C)c4cccc(c34)C2(OC)C1 (stereo not drawn) [355/918, 2-(10'-methoxy-1',6'-dimethylergoline-8'β-methyl)thio-3-methoxypyrazine]	–	–	–	–	–	–	–	very strong activity	–	–	–	–	–	inhibition at 25 µg/mL (Oryctolagus cuniculus, 25 γ/ml, 90 seconds after ADP (2.2 × 10^-4)): 25%; inhibition at 25 µg/mL (Oryctolagus cuniculus, 25 γ/ml, 180 seconds after ADP (2.2 × 10^-4)): 20%; inhibition at 25 µg/mL (Oryctolagus cuniculus, 25 γ/ml, 360 seconds after ADP (2.2 × 10^-4)): 26%; inhibition at 50 µg/mL (Oryctolagus cuniculus, 50 γ/ml, 90 seconds after ADP (2.2 × 10^-4)): 45%; inhibition at 50 µg/mL (Oryctolagus cuniculus, 50 γ/ml, 180 seconds after ADP (2.2 × 10^-4)): 31%; inhibition at 50 µg/mL (Oryctolagus cuniculus, 50 γ/ml, 360 seconds after ADP (2.2 × 10^-4)): 42%; inhibition at 100 µg/mL (Oryctolagus cuniculus, 100 γ/ml, 90 seconds after ADP (2.2 × 10^-4)): 80%; inhibition at 100 µg/mL (Oryctolagus cuniculus, 100 γ/ml, 180 seconds after ADP (2.2 × 10^-4)): 70%; inhibition at 100 µg/mL (Oryctolagus cuniculus, 100 γ/ml, 360 seconds after ADP (2.2 × 10^-4)): 80%; inhibition at 200 µg/mL (Oryctolagus cuniculus, 200 γ/ml, 90 seconds after ADP (2.2 × 10^-4)): 100%; inhibition at 200 µg/mL (Oryctolagus cuniculus, 200 γ/ml, 180 seconds after ADP (2.2 × 10^-4)): 100%; inhibition at 200 µg/mL (Oryctolagus cuniculus, 200 γ/ml, 360 seconds after ADP (2.2 × 10^-4)): 100%; IC50 (Oryctolagus cuniculus, inhibition of platelet aggregation, at all three times, read-out: ED50 (the source's name)): 55 to 70 µg/mL (≈ 130 to 165 µM)

Source: patent US4123613A, “Substituted pyrazines as inhibitors of platelet aggregation” (Societa Farmaceutici Italia S.p.A., priority 1976, dated 1978)
